# Test system: KBM7 WT cells (global proteome)
# Test: Quantitative expression proteomics (TMT isobaric tagging), drug vs DMSO
# Assay type: cell-based, human
# Conditions: for number of proteins significantly downregulated (log2FC < -0.3), destabilized proteins / number of downregulated proteins known to be implicated in KBM7 proliferation (essential for KBM7 viability): KBM7 cells, 12 hours; for number of proteins significantly downregulated (log2FC < -0.3), destabilized proteins: ~10xEC50, 7,903 proteins quantified; for number of downregulated proteins known to be implicated in KBM7 proliferation (essential for KBM7 viability): essentiality from Hart et al. 2017
# Text: The mechanism by which the assayed molecules re-program a functional CRL4B complex based on the data shown could be that drug binding to CUL4B recruits a neo-substrate directly to the cullin backbone. Alternatively, drug binding could stabilize CUL4B function to boost time intervals where a functionally competent CUL4B complexes can be formed. Here, the word “functional” implies that the CUL4B backbone of this complex needs to be neddylated, and a CUL4B associated E2 ubiquitin-conjugating enzyme (UBE2G1) needs to be bound. FIG. 9 outlines one possible mechanism. Both predicted mechanisms of action would result in a functionally altered CRL4B complex, and thus an altered stability of drug-induced (neo-) substrates. In order to identify target proteins with a decreased abundance or, in other words, target proteins that become degraded by CRL4B after drug treatment, global proteome composition was measured using quantitative expression proteomics (TMT-labeling). In brief, KBM7 cells were drug treated for 12 hours, lysed, and subjected to isobaric tagging. Ensuing proteomics analysis quantified a total of 7,903 proteins at a minimum spectral count of 2. […] Data on essentiality are taken from Hart et al., G3, August 2017 (PMID: 28655737).
# 50×10^6 KBM7^WT cells per condition were collected, washed four times with ice-cold PBS, the supernatant aspirated and pellets snap-frozen in liquid N2. Each washed cell pellet was lysed separately in 40 μL of freshly prepared lysis buffer as previously described (see Mayor-Ruiz et al., Mol Cell 2019)
# Offline Fractionation via RP-HPLC at high pH and 2D-RP/RP Liquid Chromatography Mass Spectrometry were performed as previously described (see Mayor-Ruiz et al., Mol Cell 2019).
# Acquired raw data files were processed using the Proteome Discoverer 2.2.0 platform, utilizing the Sequest HT database search engine and Percolator validation software node (V3.04) to remove false positives with a false discovery rate (FDR) of 1% on peptide and protein level under strict conditions. Searches were performed with full tryptic digestion against the human SwissProt database v2017.06 with up to two allowed miscleavage sites. Oxidation (+15.9949 Da) of methionine was set as variable modification, whilst carbamidomethylation (+57.0214 Da) of cysteine residues and TMT 6-plex labelling of peptide N-termini and lysine residues were set as fixed modifications. Data was searched with mass tolerances of ±10 ppm and ±0.02 Da on the precursor and fragment ions, respectively. Results were filtered to include peptide spectrum matches (PSMs) with Sequest HT cross-correlation factor (Xcorr) scores of […] and high peptide confidence assigned by Percolator. MS^2 signal-to-noise values (S/N) values of TMT reporter ions were used to estimate peptide/protein abundance changes. PSMs with precursor isolation interference values of ≥ 50% and average TMT-reporter ion S/N≤10 were excluded from quantitation. Only unique peptides were used for TMT quantitation as well as for TOP3 label-free quantitation. Isotopic impurity correction and TMT channel-normalization based on total peptide amount were applied. For statistical analysis and p-value calculation, the integrated ANOVA hypothesis test was used. TMT ratios with p-values below 0.01 were considered as significant. Only proteins with >1 peptide detected and >1 unique peptide detected were considered for further analysis. For the calling of destabilized proteins, a log 2 fold change threshold (drug/DMSO) of −0.3 was applied.
# Comparison of overall proteome-wide changes in KBM7 cells treated with IC020772.1 (2.5 μM), IC021313.2 (7 μM) or T6938051 (3.5 μM) for 5 h and 12h, using quantitative proteomics based on isobaric tagging.
# The protein names in Table 4, Table 5 and Table 6 refer to the protein names as provided by HUGO Gene Nomenclature Committee (HGNC) database. […]
smiles,measurement,setting,value
Cc1ccc(C(=O)N2CSCC2C(=O)N=c2[nH]cc(C)s2)o1 (centres unmarked) [Compound T6938051],"number of proteins significantly downregulated (log2FC < -0.3), destabilized proteins",,793
same,number of downregulated proteins known to be implicated in KBM7 proliferation (essential for KBM7 viability),,142
same,number of proteins with log2FC < −0.3,T6938051 vs DMSO,T6938051: 793 proteins
same,number of essential proteins among proteins with log2FC < −0.3,"T6938051 vs DMSO, essential = implicated in KBM7 proliferation",log2FC < −0.3 (142 essential proteins)
same,log2FC (T6938051/DMSO),"protein ABCF2 (accession Q9UG63-2), expression proteomics, drug vs DMSO, essential: false",−0.3004
O=C(CSc1nnc2c(n1)[nH]c1ccccc12)Nc1ccc(Cl)cn1 [IC020772.1],log2FC (IC020772.1/DMSO),ACD (Q96AP0-1),−0.567
same,log2FC (IC020772.1/DMSO),AEN (Q8WTP8-2),−0.5522
same,log2FC (IC020772.1/DMSO),ANTXR2 (P58335-4),−0.5522
same,log2FC (IC020772.1/DMSO),APEX2 (Q9UBZ4),−1.224
same,log2FC (IC020772.1/DMSO),APOB (P04114),−0.5002
same,log2FC (IC020772.1/DMSO),APOL2 (Q9BQE5),−0.5585
same,log2FC (IC020772.1/DMSO),ARSK (Q6UWY0),−0.486
same,log2FC (IC020772.1/DMSO),ASPM (Q8IZT6-1),−0.5416
same,log2FC (IC020772.1/DMSO),BICD1 (Q96G01-1),−0.5479
same,log2FC (IC020772.1/DMSO),BTBD10 (Q9BSF8-2),−0.6371
same,log2FC (IC020772.1/DMSO),C8orf59 (Q8N0T1-1),−1.442
same,log2FC (IC020772.1/DMSO),C12orf45 (Q8N5I9),−0.5479
same,log2FC (IC020772.1/DMSO),CCDC32 (Q9BV29-2),−1.221
same,log2FC (IC020772.1/DMSO),CCDC61 (Q9Y6R9-1),−0.567
same,log2FC (IC020772.1/DMSO),CCNB1 (P14635-1),−0.5416
same,log2FC (IC020772.1/DMSO),CCND3 (P30281-1),−0.5479
same,log2FC (IC020772.1/DMSO),CDC6 (Q99741),−1.201
same,log2FC (IC020772.1/DMSO),CDC7 (O00311-1),−0.5585
same,log2FC (IC020772.1/DMSO),CDCA7 (Q9BWT1-1),−1.311
same,log2FC (IC020772.1/DMSO),CEP70 (Q8NHQ1-1),−0.4941
same,log2FC (IC020772.1/DMSO),CHEK1 (O14757-1),−0.5522
same,log2FC (IC020772.1/DMSO),CLIP1 (P30622-2),−0.4982
same,log2FC (IC020772.1/DMSO),CLK2 (P49760-1),−0.5395
same,log2FC (IC020772.1/DMSO),CNTLN (Q9NXG0-2),−0.5585
same,log2FC (IC020772.1/DMSO),CSPP1 (Q1MSJ5-3),−0.4961
same,log2FC (IC020772.1/DMSO),CTNNAL1 (Q9UBT7-1),−0.5564
same,log2FC (IC020772.1/DMSO),Cllorf98 (E9PRG8),−0.6304
same,log2FC (IC020772.1/DMSO),DDX28 (Q9NUL7),−0.5437
same,log2FC (IC020772.1/DMSO),DHFR (P00374-1),−0.4961
same,log2FC (IC020772.1/DMSO),DNAJB12 (Q9NXW2-1),−0.5458
same,log2FC (IC020772.1/DMSO),DNAJB14 (Q8TBM8-1),−0.5374
same,log2FC (IC020772.1/DMSO),DPH3 (Q96FX2-1),−0.5564
same,log2FC (IC020772.1/DMSO),DSG2 (Q14126),−0.5692
same,log2FC (IC020772.1/DMSO),E2F4 (Q16254),−0.486
same,log2FC (IC020772.1/DMSO),ERICH5 (Q6P6B1-1),−0.6371
same,log2FC (IC020772.1/DMSO),EVI2B (P34910-2),−0.6282
same,log2FC (IC020772.1/DMSO),FAM177A1 (Q8N128-2),−0.486
same,log2FC (IC020772.1/DMSO),FNDC3B (Q53EP0-1),−0.6371
same,log2FC (IC020772.1/DMSO),FYTTD1 (Q96QD9-1),−1.279
same,log2FC (IC020772.1/DMSO),GAB1 (Q13480-2),−0.5564
same,log2FC (IC020772.1/DMSO),GOSR1 (O95249-1),−0.4961
same,log2FC (IC020772.1/DMSO),GPT2 (Q8TD30-1),−0.5564
same,log2FC (IC020772.1/DMSO),GTSE1 (Q9NYZ3),−0.4941
same,log2FC (IC020772.1/DMSO),HAUS1 (Q96CS2-1),−0.5043
same,log2FC (IC020772.1/DMSO),HLTF (Q14527-1),−0.5543
same,log2FC (IC020772.1/DMSO),IL27RA (Q6UWB1),−0.5458
same,log2FC (IC020772.1/DMSO),JADE2 (Q9NQC1-1),−0.5395
same,log2FC (IC020772.1/DMSO),JMJD6 (Q6NYC1-3),−0.5522
same,log2FC (IC020772.1/DMSO),JUP (P14923),−0.484
same,"number of proteins significantly downregulated (log2FC < -0.3), destabilized proteins",,869
same,number of downregulated proteins known to be implicated in KBM7 proliferation (essential for KBM7 viability),,147
same,log2FC (IC020772.1/DMSO),KBTBD7 (Q8WVZ9),−0.5353
same,log2FC (IC020772.1/DMSO),LIMD2 (Q9BT23),−0.6282
same,log2FC (IC020772.1/DMSO),MTR (Q99707-1),−0.5395
same,log2FC (IC020772.1/DMSO),NARF (Q9UHQ1-2),−0.488
same,log2FC (IC020772.1/DMSO),NCR3LG1 (Q68D85),−0.488
same,log2FC (IC020772.1/DMSO),NDC80 (O14777),−0.5585
same,log2FC (IC020772.1/DMSO),NKAPD1 (Q6ZUT1-2),−0.488
same,log2FC (IC020772.1/DMSO),NKIRAS1 (Q9NYS0),−0.5374
same,log2FC (IC020772.1/DMSO),NLK (Q9UBE8),−0.4982
same,log2FC (IC020772.1/DMSO),NPAT (Q14207),−0.6439
same,log2FC (IC020772.1/DMSO),NUF2 (Q9BZD4),−0.6282
same,log2FC (IC020772.1/DMSO),NXF3 (Q9H4D5-1),−0.5628
same,log2FC (IC020772.1/DMSO),PCLAF (Q15004-1),−1.248
same,log2FC (IC020772.1/DMSO),PDCD2 (Q16342-1),−0.5585
same,log2FC (IC020772.1/DMSO),PEX19 (P40855-1),−0.488
same,log2FC (IC020772.1/DMSO),PHF8 (Q9UPP1-4),−0.4961
same,log2FC (IC020772.1/DMSO),PIAS4 (Q8N2W9),−0.4901
same,log2FC (IC020772.1/DMSO),PIBF1 (Q8WXW3-1),−0.5002
same,log2FC (IC020772.1/DMSO),PIP5K1A (Q99755-3),−0.5479
same,log2FC (IC020772.1/DMSO),PRR14L (Q5THK1-1),−0.5458
same,log2FC (IC020772.1/DMSO),PUM2 (Q8TB72-1),−0.5585
same,log2FC (IC020772.1/DMSO),RELT (Q969Z4),−0.4901
same,log2FC (IC020772.1/DMSO),RIOK2 (Q9BVS4-1),−0.6394
same,log2FC (IC020772.1/DMSO),RLIM (Q9NVW2-1),−0.5458
same,log2FC (IC020772.1/DMSO),RNF149 (Q8NC42),−0.55
same,log2FC (IC020772.1/DMSO),RNF219 (Q5W0B1),−0.6506
same,log2FC (IC020772.1/DMSO),RTEL1 (Q9NZ71-2),−0.5395
same,log2FC (IC020772.1/DMSO),SCAND1 (P57086),−1.377
same,log2FC (IC020772.1/DMSO),SCARF1 (Q14162-1),−1.297
same,log2FC (IC020772.1/DMSO),SDHAF3 (Q9NRP4),−0.6349
same,log2FC (IC020772.1/DMSO),SIK2 (Q9H0K1),−0.4961
same,log2FC (IC020772.1/DMSO),SLC19A1 (P41440-1),−0.6326
same,log2FC (IC020772.1/DMSO),SLCO4A1 (Q96BD0-1),−0.5043
same,log2FC (IC020772.1/DMSO),SNAP29 (O95721),−0.6282
same,log2FC (IC020772.1/DMSO),SPHK2 (Q9NRA0-5),−0.6439
same,log2FC (IC020772.1/DMSO),STXBP4 (Q6ZWJ1-1),−0.5043
same,log2FC (IC020772.1/DMSO),TFAP4 (Q01664),−0.5585
same,log2FC (IC020772.1/DMSO),TMED1 (Q13445),−0.5395
same,log2FC (IC020772.1/DMSO),TMEM126B (Q8IUX1-1),−0.4961
same,log2FC (IC020772.1/DMSO),TPK1 (Q9H3S4-1),−0.5543
same,log2FC (IC020772.1/DMSO),TPT1 (P13693-1),−0.4982
same,log2FC (IC020772.1/DMSO),TRMT44 (Q8IYL2-1),−0.5416
same,log2FC (IC020772.1/DMSO),TRUB2 (O95900-1),−0.6371
same,log2FC (IC020772.1/DMSO),TTC21B (Q7Z4L5-1),−0.4901
same,log2FC (IC020772.1/DMSO),UBE2A (P49459-1),−0.4921
same,log2FC (IC020772.1/DMSO),UBE2J2 (Q8N2K1-3),−0.55
same,log2FC (IC020772.1/DMSO),UBL5 (Q9BZL1),−0.5522
same,log2FC (IC020772.1/DMSO),UBXN2B (Q14CS0),−0.5374
same,log2FC (IC020772.1/DMSO),USP38 (Q8NB14-1),−0.4941
same,log2FC (IC020772.1/DMSO),ZFAND3 (Q9H8U3),−0.5543
same,log2FC (IC020772.1/DMSO),ZNF182 (P17025-1),−0.6529

# Source: patent US12410152B2, “Oxazole and thioazole-type cullin ring ubiquitin ligase compounds and uses thereof” (Proxygen GmbH, priority 2019, dated 2025)
